In patent US20150291598A1 (NOVARTIS AG, priority 2012, published 2015):

System: P. falciparum (NF54 or 3D7 strain)
Assay: Assay for P. falciparum proliferation in infected human blood cells (SYBR Green)
Assay type: cell-based, Plasmodium falciparum
Settings: Plasmodium falciparum, 3D7|NF54, Erythrocyte, in Homo sapiens, 72 h, NF54 or 3D7 infected human erythrocytes, 72 hours; read-out: EC50 (nM), inhibitory efficacy in delaying P. falciparum proliferation in infected human blood cells
Outline: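 Infected erythrocytes (NF54 or 3D7; final 2.5% hematocrit, 0.3% parasitemia) were incubated with compounds for 72 h at 37 °C in low oxygen (3% O2, 4% CO2, 93% N2).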

EC50 [nM]	Structure (SMILES)
1360	CN(C(=O)c1cn2c(-c3ccc(S(N)(=O)=O)cc3)cnc2cn1)c1ccc(C#N)cc1 [Compound 148]

Same assay, conditions: Plasmodium falciparum, Erythrocyte, 72 h, NF54 or 3D7 infected human erythrocytes, 72 hours; read-out: EC50 (nM), inhibitory efficacy in delaying P. falciparum proliferation in infected human blood cells

EC50 [nM]	Structure (SMILES)
4870	CN(C(=O)c1cn2c(-c3ccc4cnccc4c3)cnc2cn1)c1ccc(C#N)cc1 [Compound 167, N-(4-cyanophenyl)-3-(isoquinolin-6-yl)-N-methylimidazo[1,2-a]pyrazine-6-carboxamide]
558	CN(C(=O)c1cn2c(-c3ccc4c(=O)[nH]ccc4c3)cnc2cn1)c1ccc(C#N)cc1 [Compound 168, N-(4-cyanophenyl)-N-methyl-3-(1-oxo-1,2-dihydroisoquinolin-6-yl)imidazo[1,2-a]pyrazine-6-carboxamide]
497	CN(C(=O)c1cn2c(-c3ccc(C(F)(F)F)c(F)c3)cnc2cn1)c1ccc(C#N)cc1 [Compound 169, N-(4-cyanophenyl)-3-[3-fluoro-4-(trifluoromethyl)phenyl]-N-methylimidazo[1,2-a]pyrazine-6-carbox]
4070	CCCOc1ccc(-c2cnc3cnc(C(=O)N(C)c4ccc(C#N)cc4)cn23)cn1 [Compound 170, N-(4-cyanophenyl)-N-methyl-3-(6-propoxypyridin-3-yl)imidazo[1,2-a]pyrazine-6-carboxamide]
4010	CN(C(=O)c1cn2c(-c3ccc(C(F)(F)F)cc3)cnc2cn1)c1ccccc1C(F)(F)F [Compound 171, N-methyl-N-[2-(trifluoromethyl)phenyl]-3-[4-(trifluoromethyl)phenyl]imidazo[1,2-a]pyrazine-6-carboxamide]
1130	CN(C(=O)c1cn2c(-c3ccc(C(N)=O)cc3)cnc2cn1)c1ccc(S(C)(=O)=O)cc1 [Compound 172, 3-(4-carbamoylphenyl)-N-(4-methanesulfonylphenyl)-N-methylimidazo[1,2-a]pyrazine-6-carboxamide]
4250	CN(C(=O)c1cn2c(-c3ccc(C(F)(F)F)cc3)cnc2cn1)c1ccc(OC(F)(F)F)cc1 [Compound 173, N-methyl-N-[4-(trifluoromethoxy)phenyl]-3-[4-(trifluoromethyl)phenyl]imidazo[1,2-a]pyrazine-6-carboxamide]
4750	CN(C(=O)c1cn2c(-c3ccc(C(F)(F)F)cc3)cnc2cn1)c1nccn1C [Compound 174, N-methyl-N-(1-methyl-1H-imidazol-2-yl)-3-[4-(trifluoromethyl)phenyl]imidazo[1,2-a]pyrazine-6-carboxamide]
3280	CN(C(=O)c1cn2c(-c3cccc(C(F)(F)F)c3)cnc2cn1)c1ccc(C#N)cc1 [Compound 175, N-(4-cyanophenyl)-N-methyl-3-[3-(trifluoromethyl)phenyl]imidazo[1,2-a]pyrazine-6-carboxamide]
> 10000	O=C(c1cn2c(-c3ccc(C(F)(F)F)cc3)cnc2cn1)N1CCc2cc(F)ccc21 [Compound 176, 5-fluoro-1-({3-[4-(trifluoromethyl)phenyl]imidazo[1,2-a]pyrazin-6-yl}carbonyl)-2,3-dihydro-1H-indole]
6750	CN(C(=O)c1cn2c(-c3ccc(Oc4ccccc4)cc3)cnc2cn1)c1ccc(C#N)cc1 [Compound 177, N-(4-cyanophenyl)-N-methyl-3-(4-phenoxyphenyl)imidazo[1,2-a]pyrazine-6-carboxamide]
6510	CN(C(=O)c1cn2c(-c3cnn(Cc4ccccc4)c3)cnc2cn1)c1ccc(C#N)cc1 [Compound 178, 3-(1-benzyl-1H-pyrazol-4-yl)-N-(4-cyanophenyl)-N-methylimidazo[1,2-a]pyrazine-6-carboxamide]
4400	CN(C(=O)c1cn2c(-c3ccc(Cl)cc3C(F)(F)F)cnc2cn1)c1ccc(C#N)cc1 [Compound 179, 3-[4-chloro-2-(trifluoromethyl)phenyl]-N-(4-cyanophenyl)-N-methylimidazo[1,2-a]pyrazine-6-carboxamide]
4340	CN(C(=O)c1cn2c(-c3ccc(-c4nnn[nH]4)cc3)cnc2cn1)c1ccc(C#N)cc1 [Compound 180, N-(4-cyanophenyl)-N-methyl-3-[4-(1H-1,2,3,4-tetrazol-5-yl)phenyl]imidazo[1,2-a]pyrazine-6-carboxamide]
723	CN(C(=O)c1cn2c(-c3ccc(N4CCCC4)cc3)cnc2cn1)c1ccc(C#N)cc1 [Compound 181, N-(4-cyanophenyl)-N-methyl-3-[4-(pyrrolidin-1-yl)phenyl]imidazo[1,2-a]pyrazine-6-carboxamide]
2260	CN(C(=O)c1cn2c(-c3ccc(-c4ccn[nH]4)cc3)cnc2cn1)c1ccc(C#N)cn1 [Compound 182, N-(5-cyanopyridin-2-yl)-N-methyl-3-[4-(1H-pyrazol-5-yl)phenyl]imidazo[1,2-a]pyrazine-6-carboxamide]

Second part, the compound before the results:

Structure (SMILES)	EC50 [nM]
CN(C(=O)c1cn2c(-c3ccc(C(F)(F)F)cc3)cnc2cn1)c1ccc(C#N)nc1 [Compound 147, N-(6-cyanopyridin-3-yl)-N-methyl-3-[4-(trifluoromethyl)phenyl]imidazo[1,2-a]pyrazine-6-carboxamide]	564
CN(C(=O)c1cn2c(-c3ccc4nn(C)cc4c3)cnc2cn1)c1ccc(C#N)cc1 [Compound 149, N-(4-cyanophenyl)-N-methyl-3-(2-methyl-2H-indazol-5-yl)imidazo[1,2-a]pyrazine-6-carboxamide]	1520
Cc1cc(C(F)(F)F)ccc1-c1cnc2cnc(C(=O)N(C)c3ccc(C#N)cc3)cn12 [Compound 150, N-(4-cyanophenyl)-N-methyl-3-[2-methyl-4-(trifluoromethyl)phenyl]imidazo[1,2-a]pyrazine-6-carboxamide]	3590
CN(C(=O)c1cn2c(-c3ccc(-n4cccn4)cc3)cnc2cn1)c1ccc(F)cc1 [Compound 151, N-(4-fluorophenyl)-N-methyl-3-[4-(1H-pyrazol-1-yl)phenyl]imidazo[1,2-a]pyrazine-6-carboxamide]	673
CC(C)S(=O)(=O)c1ccc(-c2cnc3cnc(C(=O)N(C)c4ccc(C#N)cc4)cn23)cc1 [Compound 152, N-(4-cyanophenyl)-N-methyl-3-[4-(propane-2-sulfonyl)phenyl]imidazo[1,2-a]pyrazine-6-carboxamide]	3170
CN(C(=O)c1cn2c(-c3ccc(F)cc3)cnc2cn1)c1ccc(C#N)cc1 [Compound 153, N-(4-cyanophenyl)-3-(4-fluorophenyl)-N-methylimidazo[1,2-a]pyrazine-6-carboxamide]	2060
CN(C(=O)c1cn2c(-c3ccc4cn[nH]c4c3)cnc2cn1)c1ccc(C#N)cc1 [Compound 154, N-(4-cyanophenyl)-3-(1H-indazol-6-yl)-N-methylimidazo[1,2-a]pyrazine-6-carboxamide]	2690
CN(C(=O)c1cn2c(-c3ccc(Cl)c(C#N)c3)cnc2cn1)c1ccc(C#N)cc1 [Compound 155, 3-(4-chloro-3-cyanophenyl)-N-(4-cyanophenyl)-N-methylimidazo[1,2-a]pyrazine-6-carboxamide]	2390
CC(C)c1nc(-c2cnc3cnc(C(=O)N(C)c4ccc(C#N)cc4)cn23)cs1 [Compound 156, N-(4-cyanophenyl)-N-methyl-3-[2-(propan-2-yl)-1,3-thiazol-4-yl]imidazo[1,2-a]pyrazine-6-carboxamide]	391
CN(C(=O)c1cn2c(-c3ccc4ncccc4c3)cnc2cn1)c1ccc(C#N)cc1 [Compound 157, N-(4-cyanophenyl)-N-methyl-3-(quinolin-6-yl)imidazo[1,2-a]pyrazine-6-carboxamide]	2010
CN(C(=O)c1cn2c(-c3ccc(C(=O)NC4CC4)cc3)cnc2cn1)c1ccc(C#N)cc1 [Compound 158, N-(4-cyanophenyl)-3-[4-(cyclopropylcarbamoyl)phenyl]-N-methylimidazo[1,2-a]pyrazine-6-carboxamide]	2050
CN(C)c1ccc(-c2cnc3cnc(C(=O)N(C)c4ccc(F)c(F)c4)cn23)cc1 [Compound 159, N-(3,4-difluorophenyl)-3-[4-(dimethylamino)phenyl]-N-methylimidazo[1,2-a]pyrazine-6-carboxamide]	368
Cc1cc(C)n(-c2ccc(-c3cnc4cnc(C(=O)N(C)c5ccc(C#N)cc5)cn34)cc2)n1 [Compound 160, N-(4-cyanophenyl)-3-[4-(3,5-dimethyl-1H-pyrazol-1-yl)phenyl]-N-methylimidazo[1,2-a]pyrazine-6-carboxamide]	1750
CN(C(=O)c1cn2c(-c3ccc(C(N)=O)cc3)cnc2cn1)c1ccc(Cl)nc1 [Compound 161, 3-(4-carbamoylphenyl)-N-(6-chloropyridin-3-yl)-N-methylimidazo[1,2-a]pyrazine-6-carboxamide]	1470
CC(C)Oc1ccc(-c2cnc3cnc(C(=O)N(C)c4ccc(C#N)cc4)cn23)cc1 [Compound 162, N-(4-cyanophenyl)-N-methyl-3-[4-(propan-2-yloxy)phenyl]imidazo[1,2-a]pyrazine-6-carboxamide]	318
Cc1nnc(-c2ccc(-c3cnc4cnc(C(=O)N(C)c5ccc(C#N)cc5)cn34)cc2)o1 [Compound 163, N-(4-cyanophenyl)-N-methyl-3-[4-(5-methyl-1,3,4-oxadiazol-2-yl)phenyl]imidazo[1,2-a]pyrazine-6-carboxamide]	2630
CN(C)c1ccc(-c2cnc3cnc(C(=O)N(C)c4ccc(S(C)(=O)=O)cc4)cn23)cc1 [Compound 164, 3-[4-(dimethylamino)phenyl]-N-(4-methanesulfonylphenyl)-N-methylimidazo[1,2-a]pyrazine-6-carboxamide]	961
CN(C(=O)c1cn2c(-c3ccc(C4NC(=O)NC4=O)cc3)cnc2cn1)c1ccc(C#N)cc1 (stereo not drawn) [Compound 165, N-(4-cyanophenyl)-3-[4-(2,5-dioxoimidazolidin-4-yl)phenyl]-N-methylimidazo[1,2-a]pyrazine-6-carboxamide]	4610
COC(=O)c1ccc(-c2cnc3cnc(C(=O)N(C)c4ccc(C#N)cc4)cn23)cc1 [Compound 166, methyl 4-{6-[(4-cyanophenyl)(methyl)carbamoyl]imidazo[1,2-a]pyrazin-3-yl}benzoate]	206
